According to patent publication US11945799B2, “4-ethynylpyridine derivatives useful as GCN2 inhibitors” (IP2IPO INNOVATIONS LIMITED, priority 2020, dated 2024):
Read-outs that look alike come from different tables or passages of the source.

Assays:
[1] = biological target: T1, full-length human GCN2 enzyme (Homo sapiens, UniProt Q9P2K8); experiment: GCN2 enzyme inhibition, LanthaScreen TR-FRET Kinase Activity assay (10 μM and 300 μM ATP); format: biochemical; settings: for IC50 / Ki: mean of replicate assays
T1 construct: purchased Carna Bioscience
Procedure: Biological and Pharmacokinetic Testing (a) GCN2 Enzyme Inhibition (10 μM and 300 μM Assays) Assay Protocol Overview:
The inhibitory activity of the Example compounds towards GCN2 enzyme was measured according to the description below, using a LanthaScreen TR-FRET (Time Resolved Fluorescence Resonance Energy Transfer) Kinase Activity assay distributed by ThermoFisher Scientific.
The full-length human GCN2 enzyme (UniProt accession number Q9P2K8) was used for all experiments (Carna Bioscience). The TR-FRET pair was composed of GFP-eIF2α and LanthaScreen Terbium-labeled anti-peIF2α (pSer52) Antibody.
Each example compound was dissolved in DMSO (0.15 mM) and dispensed in a 384-well plate by a D300 dispenser (Tecan) to a final concentration range 3000-0.13 nM using the logarithmic dilution mode in 2 replicates. Full inhibition (3000 nM commercial reference inhibitor) and DMSO vehicle control wells were also included on the same plate. All volumes were normalized to the final DMSO concentration of 2% of the reaction volume. Next, 5 μL of H2O was added to each well of the plate.
The enzyme mixture was prepared to obtain the following concentrations: • GCN2—30 nM • unloaded tRNA—0.3 nM • HEPES (pH=7.0)—100 mM • MgCl2—20 mM; MnCl2—10 mM
The mixture was applied by adding 5 μL to each well of the plate. The enzyme and the tested compound were then incubated at room temperature for 20 min while shaking at 450 rpm.
The substrate mixture was prepared to obtain the following concentrations: • GFP-eIF2α—240 nM • ATP—900 μM or 30 μM • HEPES (pH=7.0)—50 mM • MgCl2—10 mM • MnCl2—5 mM.
The mixture was applied by adding 5 μL to each well of the plate. Thus, the final concentrations of the 15 μL reaction mixture were as follows: • GCN2—10 nM • unloaded tRNA—0.1 nM • GFP-eIF2α—80 nM • ATP—300 μM or 10 μM • HEPES (1 M, pH=7.0)—50 mM • MgCl2—10 mM • MnCl2—5 mM.
The reaction was allowed to proceed at room temperature for 30 min while shaking at 450 rpm.
The antibody mixture was prepared to obtain the following concentrations: • Na2EDTA·2H2O—40 mM, in TR-FRET Dilution Buffer (Life technologies) • Tb—anti-peIF2a antibodies—4 nM.
The mixture was applied by adding 15 μL to each well. The plate was then incubated at room temperature for 60 min while shaking at 450 rpm and then read using Tecan Spark reader using specific TR-FRET filters.
The analysis of the GFP/Tb fluorescence results was conducted with GraphPad Prism to determine IC50 for each of the example compounds using 4-parameter model: log(inhibitor) vs. response-variable slope. IC50 and K, values were calculated in the usual way. The assay was carried out between 1 and 15 times. The results in the table below are the mean results from replicate assays for the compound in question, where applicable.

GCN2 [2] = experiment: KINOMEscan competition binding assay, GCN2; set-up: species or system human; settings: kinase GCN2
Procedure: (§1) Compounds were tested for activity against off-target kinases using the KINOMEscan™ screening platform, which employs a novel and proprietary active site-directed competition binding assay to quantitatively measure interactions between test compounds and hundreds of human kinases and disease relevant mutant variants.
(§2) For most assays, kinase-tagged T7 phage strains were grown in parallel in 24-well blocks in an E. coli host derived from the BL21 strain. E. coli were grown to log-phase and infected with T7 phage from a frozen stock (multiplicity of infection=0.4) and incubated with shaking at 32° C. until lysis (90-150 minutes). The lysates were centrifuged (6,000×g) and filtered (0.2 μm) to remove cell debris. The remaining kinases were produced in HEK-293 cells and subsequently tagged with DNA for qPCR detection. […] The liganded beads were blocked with excess biotin and washed with blocking buffer (SeaBlock (Pierce), 1% BSA, 0.05% Tween 20, 1 mM DTT) to remove unbound ligand and to reduce non-specific phage binding. […] Test compounds were prepared as 40× stocks in 100% DMSO and directly diluted into the assay. All reactions were performed in polypropylene 384-well plates in a final volume of 0.02 ml. […] The kinase concentration in the eluates was measured by qPCR.

MEK5 = biological target: T2, MEK5 (Homo sapiens, UniProt Q13163); experiment: KINOMEscan competition binding assay, MEK5; settings: kinase MEK5
T2 construct: host or cells: E. coli BL21-derived (T7 phage) or HEK-293
T2 sequence (Q13163 1-448): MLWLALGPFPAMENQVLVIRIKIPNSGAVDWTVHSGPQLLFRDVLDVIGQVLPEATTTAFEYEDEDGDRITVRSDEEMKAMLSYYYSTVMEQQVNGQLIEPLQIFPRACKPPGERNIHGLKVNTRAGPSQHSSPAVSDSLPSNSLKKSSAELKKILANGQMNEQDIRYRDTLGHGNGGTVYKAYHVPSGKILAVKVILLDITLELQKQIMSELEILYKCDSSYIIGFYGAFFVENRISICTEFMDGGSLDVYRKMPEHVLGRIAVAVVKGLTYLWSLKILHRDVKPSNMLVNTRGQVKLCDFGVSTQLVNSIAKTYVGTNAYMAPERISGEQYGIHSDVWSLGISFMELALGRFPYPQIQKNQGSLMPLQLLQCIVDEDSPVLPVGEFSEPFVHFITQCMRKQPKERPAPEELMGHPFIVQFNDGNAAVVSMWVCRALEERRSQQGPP
Procedure: as §1, §2

[3] = Kinetic solubility in PBS buffer pH 7.4; format: physicochemical; settings: for solubility kinetic at 90 min: aqueous buffer, kinetic from dmso stock, PBS buffer pH 7.4, 90 minutes at room temperature, from 10 mM DMSO stock
Procedure: The kinetic solubility assay investigates a solubility based on the amount of material which remains in solution after a precipitation process. […] Assay is performed using Multiscreen Vacuum Manifold. A buffer of interest (in standard protocol PBS buffer at pH=7.4 is used) is spiked with stock solution and incubated for 90 minutes at room temperature. After that time solution/suspension is filtrated. The concentration of each compound is determined on the base of prepared calibration curve using UV-VIS spectrophotometry method. The assay is made in triplicate.
Buffer of interest: 0.24 g of KH2PO4, 1.44 g of Na2HPO4, 0.2 g of KCl and 8 g NaCl and dissolve in 1 L distilled H2O; adjust pH to appropriate value (pH 7.4). 190 μl of buffer of interest was dispensed into the wells of a 96 well filter plate, followed by 10 μl of compound (10 mM stock solution in DMSO). The plate was shaken gently at room temperature for 90 minutes at 500 rpm using a BioSan, Plate Shaker-Thermostat, PST-60 HL-4. After 90 minutes, the plate was filtered using a vacuum manifold and vacuum pump. 100 μl of each filtrate and 100 μl acetonitrile was transferred to a 96 well UV-visible light transparent plate and the UV-visible absorption spectrum was measured using a Biotek Synergy 2 multiplate reader from 250-500 nm, interval range 10 nm. The amount of test compound was calculated using a calibration curve prepared by serial dilution of compounds in equivalent amounts of DMSO and acetonitrile.

off-target kinases = experiment: KINOMEscan kinase selectivity panel; format: binding, human; settings: kinases other than those at <0.5%
Procedure: as §1, §2

GCN2 [4] = settings: KINOMEscan, kinase GCN2; as reported in Nakamura et al (2018); cited from earlier work
MAP2K5 = biological target: T3, MAP2K5 (Homo sapiens, UniProt Q13163); settings: KINOMEscan, kinase MAP2K5; as reported in Nakamura et al (2018); cited from earlier work
T3 sequence (Q13163 1-448): T2 sequence (Q13163 1-448)

ZAK = ZAK (Homo sapiens, UniProt Q9NYL2); settings: KINOMEscan, kinase ZAK; as reported in Nakamura et al (2018); cited from earlier work
STK10 = STK10 (Homo sapiens, UniProt O94804); settings: KINOMEscan, kinase STK10; as reported in Nakamura et al (2018); cited from earlier work
[5] = read-out: GCN2 IC50 (nM) 10 uM ATP, 10 uM ATP
[6] = read-out: GCN2 IC50 (nM) 300 uM ATP, 300 uM ATP
[7] = read-out: GCN2 Ki (nM) 10 uM ATP, 10 uM ATP
[8] = read-out: GCN2 Ki (nM) 300 uM ATP, 300 uM ATP

T1 sequence (Q9P2K8 whole entry): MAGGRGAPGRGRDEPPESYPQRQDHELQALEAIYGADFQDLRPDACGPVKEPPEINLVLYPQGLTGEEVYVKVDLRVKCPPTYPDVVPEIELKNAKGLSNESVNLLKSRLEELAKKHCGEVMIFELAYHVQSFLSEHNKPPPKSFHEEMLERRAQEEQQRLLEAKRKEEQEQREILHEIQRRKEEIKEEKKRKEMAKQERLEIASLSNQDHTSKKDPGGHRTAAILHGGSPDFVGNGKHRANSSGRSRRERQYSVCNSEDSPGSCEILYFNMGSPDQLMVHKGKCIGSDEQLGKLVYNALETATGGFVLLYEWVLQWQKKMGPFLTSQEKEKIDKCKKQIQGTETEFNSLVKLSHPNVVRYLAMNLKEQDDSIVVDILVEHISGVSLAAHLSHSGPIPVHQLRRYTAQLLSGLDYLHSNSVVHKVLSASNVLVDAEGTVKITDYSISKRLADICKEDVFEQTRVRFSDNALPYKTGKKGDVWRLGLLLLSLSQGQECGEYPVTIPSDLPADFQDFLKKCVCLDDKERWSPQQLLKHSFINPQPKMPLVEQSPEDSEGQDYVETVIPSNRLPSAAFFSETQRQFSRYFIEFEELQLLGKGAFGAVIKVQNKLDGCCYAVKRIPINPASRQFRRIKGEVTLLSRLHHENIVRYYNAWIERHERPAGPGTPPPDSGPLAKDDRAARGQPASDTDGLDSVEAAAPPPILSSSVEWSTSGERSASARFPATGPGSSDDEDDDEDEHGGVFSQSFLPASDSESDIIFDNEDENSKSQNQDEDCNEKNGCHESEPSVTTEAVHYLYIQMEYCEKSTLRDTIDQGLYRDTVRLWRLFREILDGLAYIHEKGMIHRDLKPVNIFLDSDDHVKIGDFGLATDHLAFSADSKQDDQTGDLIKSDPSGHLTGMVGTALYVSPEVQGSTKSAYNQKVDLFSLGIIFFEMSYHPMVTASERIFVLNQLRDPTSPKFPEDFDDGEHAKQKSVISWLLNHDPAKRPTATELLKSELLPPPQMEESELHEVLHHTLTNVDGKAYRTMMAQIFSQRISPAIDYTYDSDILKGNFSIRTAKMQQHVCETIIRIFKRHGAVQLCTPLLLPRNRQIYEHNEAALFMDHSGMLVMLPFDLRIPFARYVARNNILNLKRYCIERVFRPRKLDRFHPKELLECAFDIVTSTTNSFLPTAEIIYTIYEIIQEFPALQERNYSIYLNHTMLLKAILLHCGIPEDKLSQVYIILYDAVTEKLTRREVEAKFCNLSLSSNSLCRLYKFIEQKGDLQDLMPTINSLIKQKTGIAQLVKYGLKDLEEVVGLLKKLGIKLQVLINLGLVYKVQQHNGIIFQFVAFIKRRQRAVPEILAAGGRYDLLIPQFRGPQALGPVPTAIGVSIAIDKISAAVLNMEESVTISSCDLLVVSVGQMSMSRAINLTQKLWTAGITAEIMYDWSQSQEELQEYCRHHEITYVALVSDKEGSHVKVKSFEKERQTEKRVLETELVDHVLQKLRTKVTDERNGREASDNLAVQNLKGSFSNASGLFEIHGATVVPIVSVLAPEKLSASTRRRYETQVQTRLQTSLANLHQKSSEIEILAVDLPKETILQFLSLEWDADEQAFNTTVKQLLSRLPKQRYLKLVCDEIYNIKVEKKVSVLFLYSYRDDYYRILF
ZAK, sequence (Q9NYL2 whole entry): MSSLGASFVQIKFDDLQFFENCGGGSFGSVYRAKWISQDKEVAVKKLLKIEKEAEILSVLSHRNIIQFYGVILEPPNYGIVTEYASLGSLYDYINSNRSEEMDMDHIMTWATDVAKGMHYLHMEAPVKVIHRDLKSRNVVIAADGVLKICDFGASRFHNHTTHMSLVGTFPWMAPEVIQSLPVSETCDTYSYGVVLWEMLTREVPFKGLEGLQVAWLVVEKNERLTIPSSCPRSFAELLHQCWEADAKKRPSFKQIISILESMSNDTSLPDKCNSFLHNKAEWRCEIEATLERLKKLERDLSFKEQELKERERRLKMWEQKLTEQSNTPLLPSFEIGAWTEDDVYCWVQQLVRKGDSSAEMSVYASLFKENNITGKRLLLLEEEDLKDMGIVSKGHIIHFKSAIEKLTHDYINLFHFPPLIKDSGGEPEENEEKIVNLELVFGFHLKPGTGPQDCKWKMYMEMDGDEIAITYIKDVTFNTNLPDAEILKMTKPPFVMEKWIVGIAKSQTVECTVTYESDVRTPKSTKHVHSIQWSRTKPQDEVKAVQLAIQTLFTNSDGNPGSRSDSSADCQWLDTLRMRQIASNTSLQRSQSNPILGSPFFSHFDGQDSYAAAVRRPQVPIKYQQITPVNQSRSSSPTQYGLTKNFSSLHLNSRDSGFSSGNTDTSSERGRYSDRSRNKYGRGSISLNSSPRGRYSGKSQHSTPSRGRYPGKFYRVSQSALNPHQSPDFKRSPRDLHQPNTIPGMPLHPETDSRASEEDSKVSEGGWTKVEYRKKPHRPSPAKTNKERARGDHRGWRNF
STK10, sequence (O94804 whole entry): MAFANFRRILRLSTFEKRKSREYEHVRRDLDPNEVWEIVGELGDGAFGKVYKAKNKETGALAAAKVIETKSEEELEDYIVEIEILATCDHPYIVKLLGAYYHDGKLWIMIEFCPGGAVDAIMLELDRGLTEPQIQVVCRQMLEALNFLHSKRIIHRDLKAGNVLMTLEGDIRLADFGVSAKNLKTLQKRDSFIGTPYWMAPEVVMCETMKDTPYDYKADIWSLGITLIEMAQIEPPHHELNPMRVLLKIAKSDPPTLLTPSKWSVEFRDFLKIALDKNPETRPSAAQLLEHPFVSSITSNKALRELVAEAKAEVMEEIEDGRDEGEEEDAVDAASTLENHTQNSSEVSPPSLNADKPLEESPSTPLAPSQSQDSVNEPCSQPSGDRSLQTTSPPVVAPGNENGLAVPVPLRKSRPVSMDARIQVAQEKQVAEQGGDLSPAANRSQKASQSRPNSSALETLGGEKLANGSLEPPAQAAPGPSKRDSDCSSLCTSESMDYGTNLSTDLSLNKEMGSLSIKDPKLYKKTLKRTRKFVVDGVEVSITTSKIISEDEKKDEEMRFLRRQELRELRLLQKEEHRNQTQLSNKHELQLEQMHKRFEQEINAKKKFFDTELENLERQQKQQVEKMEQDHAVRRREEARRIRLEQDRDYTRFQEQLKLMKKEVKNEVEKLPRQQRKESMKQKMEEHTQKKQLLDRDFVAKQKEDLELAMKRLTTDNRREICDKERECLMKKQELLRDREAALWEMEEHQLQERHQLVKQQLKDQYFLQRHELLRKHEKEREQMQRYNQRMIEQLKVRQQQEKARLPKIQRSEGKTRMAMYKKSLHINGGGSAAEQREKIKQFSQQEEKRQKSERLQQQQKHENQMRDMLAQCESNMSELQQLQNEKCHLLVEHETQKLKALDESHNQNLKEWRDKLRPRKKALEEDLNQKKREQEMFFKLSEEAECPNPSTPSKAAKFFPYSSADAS

Structure (SMILES)	GCN2 inhibitory activity (in words) [1]	IC50 [1, 5] [nM]	IC50 [1, 6] [nM]	Ki [1, 7] [nM]	Ki [1, 8] [nM]	% Control (GCN2 [2]) [%]	% Control (MEK5) [%]	kinetic solubility (in words) [3]	solubility kinetic at 90 min [3] [µg/mL]	Kinases with % Control <5% (off-target kinases)	% Control (GCN2 [4]) [%]	% Control (MAP2K5) [%]	% Control (ZAK) [%]	% Control (STK10) [%]
COc1ncc(Cl)cc1S(=O)(=O)Nc1nccc(C#Cc2cnc3[nH]ncc3c2)c1F [Example 3, 5-chloro-N-[3-fluoro-4-(2-{1H-pyrazolo[3,4-b]pyridin-5-yl}ethynyl)pyridin-2-yl]-2-methoxypyridine-3-sulfonamide]	strong	3.5	26.5	1.1	0.6	<0.5	<5	good	229					
COc1ncc(Cl)cc1S(=O)(=O)Nc1nccc(C#Cc2cnc(N)nc2)c1F [Example 1, N-{4-[2-(2-aminopyrimidin-5-yl)ethynyl]-3-fluoropyridin-2-yl}-5-chloro-2-methoxypyridine-3-sulfonamide]	strong	7.2	103	2.3	1.6	<0.5		good	218	None				
COc1ncc(Cl)cc1S(=O)(=O)Nc1ccc(F)c(C#Cc2cnc(N)nc2)c1F [Comp Ex 1, reference compound]		5.9	59.2	1.9	0.9				4.7		<0.5	<5	<5	<5
COc1ncc(Cl)cc1S(=O)(=O)Nc1nccc(C#Cc2cncc3cccnc23)c1F [Example 6, 5-chloro-N-{4-[2-(1,6-naphthyridin-8-yl)ethynyl]-3-fluoropyridin-2-yl}-2-methoxypyridine-3-sulfonamide]		6.7	49.3	2.1	0.8				40.3					
COc1ncc(Cl)cc1S(=O)(=O)Nc1nccc(C#Cc2cnc3c(N)nccn23)c1F [Example 11, N-{4-[2-(8-aminoimidazo[1,2-a]pyrazin-3-yl)ethynyl]-3-fluoropyridin-2-yl}-5-chloro-2-methoxypyridine-3-sulfonamide]		2.3	71.8	0.7	1.1				216					
COc1ncc(Cl)cc1S(=O)(=O)Nc1nccc(C#Cc2cncc3nccnc23)c1F [Example 5, 5-chloro-N-{4-[2-(pyrido[3,4-b]pyrazin-8-yl)ethynyl]-3-fluoropyridin-2-yl}-2-methoxypyridine-3-sulfonamide]		7.8	186	2.5	2.8				223					
COc1ncc(Cl)cc1S(=O)(=O)Nc1nccc(C#Cc2cnc3[nH]c(=O)[nH]c3c2)c1F [Example 32, 5-chloro-N-[3-fluoro-4-(2-{2-oxo-1H,2H,3H-imidazo[4,5-b]pyridin-6-yl}ethynyl)pyridin-2-yl]-2-methoxypyridine-3-sulfonamide]			48.1		0.7				40.1					
Nc1ncc(C#Cc2ccnc(NS(=O)(=O)c3cc(Cl)ccc3Cl)c2F)cn1 [Example 15, N-{4-[2-(2-aminopyrimidin-5-yl)ethynyl]-3-fluoropyridin-2-yl}-2,5-dichlorobenzene-1-sulfonamide]			465		7.1				224					
CNc1ncc(C#Cc2ccnc(NS(=O)(=O)c3cc(Cl)cnc3OC)c2F)cn1 [Example 25, 5-chloro-N-(3-fluoro-4-{2-[2-(methylamino)pyrimidin-5-yl]ethynyl}pyridin-2-yl)-2-methoxypyridine-3-sulfonamide]			110		1.7				208					
